From patent publication US20070243576A1, “Method to confirm immunosuppression in human patients by measuring lymphocyte activation” (priority 2001, published 2007)

Legend:
[1] = test system: T-Lymphocytes (CD4 subset) in whole blood; format: cell-based, human
[2] = test system: T lymphocytes (CD4 subset) in whole blood; assay: Whole blood ATP response after stimulation with PHA, 2-24 hr (Example 2); format: cell-based, human; conditions: PHA 1%
Method: Aliquots of the blood were diluted 1:10 in RPMI 1640. Replicates received either no addition or the mitogen PHA at 1% final concentration. Samples were incubated at 37° C. […] The cells and beads were placed next to a permanent magnet positioned such that the magnetic field was in a direction perpendicular to gravity. […] Assay Reagent (luciferin/luciferase) was added to the samples ATP production was determined as described above. […] The response is clearly evident at 4 hours of incubation, peaks at 8 hours, and remains high at 24 hrs post stimulation.

[3] = test system: T-Lymphocytes (CD4 subset) in whole blood; assay: T-lymphocyte ATP response to PHA in normal and HIV infected donors (Example 4); conditions: PHA 10 ug/mL, overnight incubation, anti-CD4 beads
[4] = test system: T-lymphocytes in whole blood; format: cell-based, human

Substance | increase in ATP over background [1] | time within which activation of the T lymphocyte subset is detected [1] [min] | increase in ATP over background ([2]; all time points (2, 4, 6, 8, 24 hr)) | time of peak ATP response ([2]; time course 2-24 hr) [h] | ATP response to PHA, HIV+ population versus normal donors [3] | increase in ATP over background [4]
Phytohemagglutinin [PHA] | statistically significant increase | ≤ 30 | increase in ATP over background | 8 | lower than the normal donor population | –
Tetanus Toxoid | significant | ≤ 300 | – | – | – | increase in ATP over background
